# Measurements published in publication PMC5719405, “Sex-related pharmacokinetic differences and mechanisms of metapristone (RU486 metabolite)” (Scientific Reports, 2017).
# Where two headings read alike, the source gives them in different places.
# Experiments:
# HT-29 cells = settings: cited from earlier work
# [1] = Tissue distribution study with metapristone; type: in vivo, SD rats; settings: female rats, 45 mg/kg single oral dose
# Description: Sixteen SD rats (four females/group) were dosed by gavage with 45 mg/kg of metapristone to carry out tissue distribution study, as we previously described. Rats were sacrificed at 6 h and 24 h after dosing in order to collect blood, heart, liver, spleen, lung, kidney, brain, intestine and ovary for quantitative analysis of metapristone concentrations. Tissue samples were immediately washed in normal saline to remove the blood or content, and blotted dry with filter paper. Tissue samples (0.2 g) were individually homogenized with normal saline (0.8 mL). Tissue homogenates (100 µL) were processed as the plasma samples. The detailed method validation for analysis of metapristone in plasma, tissue homogenates, and liver microsomal samples is provided in the Supplementary materials.
# [2] = Single oral dose pharmacokinetics of metapristone in beagle dogs, non-compartmental analysis; type: in vivo; settings: for AUC(0-inf) / AUC(0-t) / CL/F / Cmax / Tmax / Vd/F / half-life / MRT last: beagle, dog, plasma, po; for MRT last: read-out: MRT (0-t)
# Description: For pharmacokinetic study, rats were fasted overnight with free access to water using procedures reported previously. Ninety-six SD rats (forty-eight males and forty-eight females) were randomly divided into […] single-dose groups. Rats (six animals/sex/dose) were given a single oral dose of 22.5, 45 and 90 mg/kg metapristone (in soybean oil solution) by intragastric administration or 10 mg/kg metapristone by intravenous bolus injection. Rat blood samples (0.25 mL) were collected from the ocular vein into heparinized tubes prior to and at 0 (before administration), 0.5, 1.0, 1.5, 2.0, 4.0, 6.0, 8.0, 12, 24, 36 and 48 h post-dosing in female rats or 0.5, 1.0, 1.5, 2.0, 4.0, 6.0, 8.0, 12, 24, 30 and 36 h post-dosing in male rats. In the repeated dose study twenty-four rats (six animals/sex/dose) received the same dosing regimen at 45 mg/kg metapristone for 10 days. Blood samples were collected after oral administration on day 1 and 10 at T max. The samples were stored at −80 °C until analysis. Beagle dogs (three animals/sex/dose) were dosed by gavage at 5.62, 11.25, 22.5 mg/kg metapristone (in soybean oil solution). Dog blood (0.25 mL) was withdrawn from the jugular vein at 0.5, 1.0, 2.0, 4.0, 6.0, 8.0, 10, 12, 24 and 48 h after a single oral administration.
# The plasma samples obtained by centrifugation at 4000 g for 10 min and stored at −80 °Cuntil analysis. To each 100 µL of plasma sample, 50 µL of internal standard solution were added. Metapristone was then separated and analyzed by the LC/MS/MS method according to the previously described procedures. Peak area ratios of metapristone to the internal standard were plotted against theoretical concentrations. The maximum plasma concentration (C max), the time to reach C max (T max) were determined directly from experimental data. The other pharmacokinetic parameters such as elimination half-life (t 1/2), and mean residence time (MRT) were calculated by using the non-compartmental pharmacokinetics data analysis software of DAS version 3.2 (Bio Guider Co., Shanghai, China). The area under the plasma concentration-time curve from zero to infinity was calculated by using the linear trapezoidal rule with extrapolation to infinity with terminal constant eliminate rate (k e). Bioavailability was calculated as (AUCp.o./AUCi.v.) x (dosei.v./ dosep.o.) 100% as we previously described.
# [3] = In vitro microsomal metabolism of metapristone; type: in vitro ADME, rat; settings: for metapristone remained: 2 h; for degradation of metapristone: 37 °C, 1 h
# Description: The microsomal assay was similar to that described previously. Briefly, metapristone (6, 9, 13.5 µM) was incubated with male and female at liver microsomes, respectively, in an NADPH-generating system containing 1 mM NADP, 10 mM glucose-6-phosphate, 1 U/mL glucose-6-phosphate dehydrogenase and 4 mM MgCl2 in 100 mM potassium phosphate buffer (pH 7.4). Reaction mixtures were prepared in duplicate and were pre-incubated for 5 min at 37 °C. The actions were then initiated by the addition of NADPH solution. The final volume of each reaction mixture was 200 µL. Negative control reactions were prepared by incubating mixtures that excluded metapristone from the mixture. For negative control incubation where microsomes were excluded, they were added back to the reaction mixture after quenching with methanol. Samples were removed at 0, 40, 60, 80,100, 120 and 150 min, and vortex-mixed with cold ethyl acetate to stop the reaction. After centrifugation, a portion of each resulting supernatant was analyzed by mass spectrometry for unchanged metapristone.
# [4] = 5.62, 11.25 and 22.5 mg/kg p.o.
smiles,measurement,setting,value
"CC#C[C@]1(O)CC[C@H]2[C@@H]3CCC4=CC(=O)CCC4=C3[C@@H](c3ccc(NC)cc3)C[C@@]21C [metapristone, N-monodemethyl mifepristone]",adhesion of HT-29 cells to endothelial cells,HT-29 cells,interrupted adhesion
same,concentration at 6 h,"[1]; Sprague-Dawley, rat, liver, 6 h",222000 ± 23000 ng/g
same,metapristone in rat brain,[1],detected
same,C max and AUC in female dogs relative to male dogs (greater),[2]; [4],1–2.4 fold
same,CL/F in female dogs relative to male dogs (lower),[2]; [4],1.5–3.6 fold
same,V d /F in female dogs relative to male dogs (lower),[2]; [4],1.3–2.38 fold
same,AUC(0-inf),"[2]; female dogs, p.o. 5.6 mg/kg",580 ± 120 ng·h/mL
same,AUC(0-t),"[2]; female dogs, p.o. 5.6 mg/kg",560 ± 110 ng·h/mL
same,CL/F,"[2]; female dogs, p.o. 5.6 mg/kg",165 mL/min/kg
same,Cmax,"[2]; female dogs, p.o. 5.6 mg/kg",70 ± 10 ng/mL
same,Tmax,"[2]; female dogs, p.o. 5.6 mg/kg",1.67 ± 0.57 h
same,Vd/F,"[2]; female dogs, p.o. 5.6 mg/kg",126 ± 7.1 L/kg
same,half-life,"[2]; female dogs, p.o. 5.6 mg/kg",8.05 ± 1.12 h
same,MRT last,"[2]; female dogs, p.o. 5.6 mg/kg",7.23 ± 1.69 h
same,AUC(0-inf),"[2]; female dogs, p.o. 11.25 mg/kg",1330 ± 110 ng·h/mL
same,AUC(0-t),"[2]; female dogs, p.o. 11.25 mg/kg",1280 ± 100 ng·h/mL
same,CL/F,"[2]; female dogs, p.o. 11.25 mg/kg",141 mL/min/kg
same,Cmax,"[2]; female dogs, p.o. 11.25 mg/kg",190 ± 30 ng/mL
same,Tmax,"[2]; female dogs, p.o. 11.25 mg/kg",1.67 ± 0.57 h
same,Vd/F,"[2]; female dogs, p.o. 11.25 mg/kg",105 ± 9.17 L/kg
same,half-life,"[2]; female dogs, p.o. 11.25 mg/kg",8.57 ± 1.12 h
same,MRT last,"[2]; female dogs, p.o. 11.25 mg/kg",8.62 ± 0.56 h
same,AUC(0-inf),"[2]; female dogs, p.o. 22.5 mg/kg",2560 ± 210 ng·h/mL
same,AUC(0-t),"[2]; female dogs, p.o. 22.5 mg/kg",2400 ± 150 ng·h/mL
same,CL/F,"[2]; female dogs, p.o. 22.5 mg/kg",147 mL/min/kg
same,Cmax,"[2]; female dogs, p.o. 22.5 mg/kg",380 ± 10 ng/mL
same,Tmax,"[2]; female dogs, p.o. 22.5 mg/kg",1.66 ± 0.57 h
same,Vd/F,"[2]; female dogs, p.o. 22.5 mg/kg",89.2 ± 14.1 L/kg
same,half-life,"[2]; female dogs, p.o. 22.5 mg/kg",7.19 ± 2.83 h
same,MRT last,"[2]; female dogs, p.o. 22.5 mg/kg",7 ± 0.61 h
same,AUC(0-inf),"[2]; male dogs, p.o. 5.6 mg/kg",230 ± 50 ng·h/mL
same,AUC(0-t),"[2]; male dogs, p.o. 5.6 mg/kg",210 ± 30 ng·h/mL
same,CL/F,"[2]; male dogs, p.o. 5.6 mg/kg",266 mL/min/kg
same,Cmax,"[2]; male dogs, p.o. 5.6 mg/kg",50 ng/mL
same,Tmax,"[2]; male dogs, p.o. 5.6 mg/kg",2 h
same,Vd/F,"[2]; male dogs, p.o. 5.6 mg/kg",187 ± 8.21 L/kg
same,half-life,"[2]; male dogs, p.o. 5.6 mg/kg",8.18 ± 2.9 h
same,MRT last,"[2]; male dogs, p.o. 5.6 mg/kg",7.16 ± 1.12 h
same,AUC(0-inf),"[2]; male dogs, p.o. 11.25 mg/kg",770 ± 110 ng·h/mL
same,AUC(0-t),"[2]; male dogs, p.o. 11.25 mg/kg",750 ± 100 ng·h/mL
same,CL/F,"[2]; male dogs, p.o. 11.25 mg/kg",241 mL/min/kg
same,Cmax,"[2]; male dogs, p.o. 11.25 mg/kg",150 ± 30 ng/mL
same,Tmax,"[2]; male dogs, p.o. 11.25 mg/kg",2 h
same,Vd/F,"[2]; male dogs, p.o. 11.25 mg/kg",136 ± 13.1 L/kg
same,half-life,"[2]; male dogs, p.o. 11.25 mg/kg",5.54 ± 2.3 h
same,MRT last,"[2]; male dogs, p.o. 11.25 mg/kg",5.68 ± 1.1 h
same,AUC(0-inf),"[2]; male dogs, p.o. 22.5 mg/kg",1600 ± 340 ng·h/mL
same,AUC(0-t),"[2]; male dogs, p.o. 22.5 mg/kg",1560 ± 310 ng·h/mL
same,CL/F,"[2]; male dogs, p.o. 22.5 mg/kg",210 mL/min/kg
same,Cmax,"[2]; male dogs, p.o. 22.5 mg/kg",300 ± 20 ng/mL
same,Tmax,"[2]; male dogs, p.o. 22.5 mg/kg",2 h
same,Vd/F,"[2]; male dogs, p.o. 22.5 mg/kg",123 ± 15 L/kg
same,half-life,"[2]; male dogs, p.o. 22.5 mg/kg",6.79 ± 2.81 h
same,MRT last,"[2]; male dogs, p.o. 22.5 mg/kg",6.18 ± 0.34 h
same,increase of Cmax for female dogs versus male dogs,[2]; p.o. 5.6 mg/kg,40%
same,metapristone remained,"[3]; female rat liver microsomes, 6 µM",21.9%
same,metapristone remained,"[3]; female rat liver microsomes, 9 µM",27.2%
same,metapristone remained,"[3]; female rat liver microsomes, 13.5 µM",37.3%
same,degradation of metapristone,"[3]; female rat liver microsomes, 6, 9 and 13.5 µM",35.1–48.9%
same,metapristone remained,"[3]; male rat liver microsomes, 6 µM",10.2%
same,metapristone remained,"[3]; male rat liver microsomes, 9 µM",14.2%
same,metapristone remained,"[3]; male rat liver microsomes, 13.5 µM",29.6%
same,degradation of metapristone,"[3]; male rat liver microsomes, 6, 9 and 13.5 µM",47.4–67.6%
